Measurements as given in patent US20250345459A1, “COMPOUND OR SALT THEREOF, LIPID COMPOSITION, PHARMACEUTICAL COMPOSITION, AND DELIVERY CARRIER” (FUJIFILM Corporation, priority 2023, published 2025).

Experiments:
ICR mice = experiment: EPO protein expression in mice after intravenous EPO mRNA lipid nanoparticles; format: in vivo; settings: mRNA 0.1 mg/kg, plasma 6 hours after administration
Protocol: (§1) The compounds described in Table 1, the neutral lipid, cholesterol (product name: Cholesterol HP; NIPPON FINE CHEMICAL CO., LTD.), and 1,2-dimyristoyl-rac-glycero-3-(methylpolyoxyethylene 2000) (hereinafter, called DMG-PEG2000) (product name: SUNBRIGHT® GM-020; NOF corporation) were dissolved in ethanol at a molar ratio of ionized lipid:neutral lipid:cholesterol:DMG-PEG2000=50:10:38.5:1.5 mol % such that the total lipid concentration was 12.5 mmol/L, to obtain an oil phase.
(§2) As the neutral lipid, 1,2-distearoyl-sn-glycero-3-phosphocholine (product name: COATSOME® MC-8080; NOF corporation) (hereinafter, DSPC), or L-α-dioleoylphosphatidylethanolamine (hereinafter, DOPE) (product name: COATSOME® MC-8181; NOF corporation) was used.
(§3) EPO mRNA (product name: CleanCap EPO mRNA (5 moU); TriLink) was diluted with 50 mmol/L citrate buffer having a pH 4.0 such that the weight ratio of total lipid concentration to mRNA concentration is about 20:1 to 64:1, thereby obtaining a water phase. Then, the water phase and the oil phase were mixed together using NanoAssemblr (Precision NanoSystems) such that the volume ratio of water phase:oil phase was 3:1. The mixed solution was diluted 2-fold with any of phosphate buffered physiological saline (PBS), water, or a 20 mmol/L Tris buffer solution (pH 7.4) to obtain a dispersion liquid of mRNA lipid nanoparticles. The dispersion liquid was dialyzed with 20 mmol/L Tris buffer solution (pH 7.4) containing 8% sucrose using a dialysis cassette (Slide-A-Lyzer G2, MWCO: 10 kD, Thermo Fisher Scientific) to remove ethanol, thereby obtaining EPO mRNA-encapsulating lipid nanoparticles.
The dispersion liquid of mRNA lipid nanoparticles prepared in above <Preparation of EPO mRNA-encapsulating lipid nanoparticles> was intravenously administered to ICR mice at a mRNA dosage of 0.1 mg/kg. 6 hours after the administration, blood was collected from the caudal vena cava, thereby obtaining plasma. The human EPO […] was quantified by using the obtained blood plasma and Erythropoietin (EPO) Human Elisa Kit (Abcam.plc). The quantitative value is described as a relative amount of EPO protein in a case where Comparative Example 1 is 1.

[1] = Particle size of EPO mRNA-encapsulating lipid nanoparticles; format: physicochemical; settings: mixed solution PBS
Protocol: as §1, §2, §3
The particle size of the mRNA-encapsulating lipid nanoparticles was measured by 5-fold diluting the dispersion liquid of lipid nanoparticle with phosphate buffered physiological saline (PBS) using a particle size measurement device NanoSaqla (Otsuka Electronics Co., Ltd.).

EPO mRNA = experiment: mRNA encapsulation rate of mRNA lipid nanoparticles; format: physicochemical; settings: mixed solution PBS
Protocol: as §1, §2, §3
EPO mRNA was diluted with MilliQ water to prepare a diluted sample in 2-fold dilution series from 100 µg/mL to […], and a calibration curve solution was prepared. 50 μL of the calibration curve solution or the mRNA lipid nanoparticles was mixed with 450 μL of methanol to prepare a measurement solution.
The absorbance of each measurement solution at 260 nm and 330 nm was measured using a UV plate reader (Multiskan Go, Thermo Fisher Scientific), the absorbance at 330 nm was subtracted from the absorbance at 260 nm, and the result was defined as the absorbance of each measurement solution. The total […] nucleic acid concentration was calculated from the calibration curve using the absorbance of each sample measurement solution.
The concentration of the outer water phase nucleic acid was quantified by a standard addition method using a QuanT-iT RiboGreen RNA Assay Kit (Thermo Fisher Scientific). First, a 20× TE buffer included in the above kit was diluted with water, thereby obtaining a 1×TE buffer. TE represents Tris/EDTA (ethylenediaminetetraacetic acid). EPO mRNA was diluted with a TE buffer such that the final concentration was 0 to 400 ng/mL to prepare a nucleic acid diluted series. 10 μL of mRNA lipid nanoparticles diluted 5-fold with TE buffer and 90 µL of a nucleic acid dilution series were mixed in a 96-well plate, 100 μL of a Ribogreen reagent diluted 200-fold with TE buffer was added to each well, and then fluorescence (excitation wavelength: 485 nm, fluorescence wavelength: 535 nm) was measured using a fluorescence plate reader (Infinite 200 Pro M nano+, TECAN). From the obtained results, the outer water phase nucleic acid concentration of each measurement solution was calculated according to the standard addition method.
By using the quantification results of the total mRNA concentration and the mRNA concentration in the outer water phase that were obtained through the above steps, the mRNA encapsulation rate of the mRNA lipid nanoparticles was calculated according to the following Equation. […]

[2] = neutral lipid DSPC, Lipid/Nucleic acid (wt/wt) 20, Comparative Example 1 is 1
[3] = LNP with neutral lipid DOPE, Lipid/Nucleic acid (wt/wt) 64
[4] = LNP with neutral lipid DSPC, Lipid/Nucleic acid (wt/wt) 20

Particle size (nm) [1, 3] | Particle size (nm) [1, 4] | Nucleic acid encapsulation rate (%) (EPO mRNA; [3]) | Nucleic acid encapsulation rate (%) (EPO mRNA; [4]) | Structure (SMILES) | Relative amount of EPO protein (to Comparative Example 1) (ICR mice; neutral lipid DOPE, Lipid/Nucleic acid (wt/wt) 64, Comparative Example 1 is 1) | Relative amount of EPO protein (to Comparative Example 1) (ICR mice; [2])
106.8 nm | 88 nm | 99% | 93% | CCCCCCC(CCCCCC)COC(=O)CCCCN(CCCCCC)C(=O)OCCN(CCOC(=O)N(CCCCCC)CCCCC(=O)OCC(CCCCCC)CCCCCC)CCN(CC)CC [Example 5, Bis(2-hexyloctyl) 11-(2-(diethylamino)ethyl)-6,16-dihexyl-7,15-dioxo-8,14-dioxa-6,11,16-triazahenicosanedioate] | 11.74 | 9.14
– | 126 nm | – | 94% | CCCCCC(CCCCC)COC(=O)CCCCCN(CCCCC)C(=O)OCCN(CCCN(CC)CC)CCOC(=O)N(CCCCC)CCCCCC(=O)OCC(CCCCC)CCCCC [Example 49, bis(2-pentylheptyl) 12-(3-(diethylamino)propyl)-8,16-dioxo-7,17-dipentyl-9,15-dioxa-7,12,17-triazatricosanedioate] | – | 1.12
– | 93 nm | – | 94% | CCCCCCCCN(CCCCCC(=O)OCC(CCCCC)CCCCC)C(=O)OCCN(CCCN(CC)CC)CCOC(=O)N(CCCCCCCC)CCCCCC(=O)OCC(CCCCC)CCCCC [Example 51, Bis(2-pentylheptyl) 12-(3-(diethylamino)propyl)-7,17-dioctyl-8,16-dioxo-9,15-dioxa-7,12,17-triazatricosanedioate] | – | 2.88
– | 145 nm | – | 93% | CCCCCCCCN(CCCCC(=O)OCC(CCCCC)CCCCC)C(=O)OCCN(CCCCN(CC)CC)CCOC(=O)N(CCCCCCCC)CCCCC(=O)OCC(CCCCC)CCCCC [Example 36, Bis(2-pentylheptyl) 11-(4-(diethylamino)butyl)-6,16-dioctyl-7,15-dioxo-8,14-dioxa-6,11,16-triazahenicosanedioate] | – | 6.40
– | 206 nm | – | 62% | CCCCCCCCN(CCCCCCCCCC(=O)OCC(CCCCCC)CCCCCC)C(=O)OCCN(CCOC(=O)CCCCCCC)CCN(CC)CC [Comparative Example 1, 2-hexyloctyl 3-ethyl-6-(2-(octanoyloxy)ethyl)-11-octyl-10-oxo-9-oxa-3,6,11-triazahenicosan-21-oate, reference compound] | – | 1.00
– | 180 nm | – | 79% | CCCCCCC(CCCCCC)COC(=O)CCCCN(CCCC)C(=O)OCCN(CCOC(=O)N(CCCC)CCCCC(=O)OCC(CCCCCC)CCCCCC)CCN(CC)CC [Example 23, Bis(2-hexyloctyl) 6,16-dibutyl-11-(2-(diethylamino)ethyl)-7,15-dioxo-8,14-dioxa-6,11,16-triazahenicosanedioate] | – | 1.61
– | 155 nm | – | 78% | CCCCCCCCCCCOC(=O)CN(CC(=O)OCCCCCCCCCCC)C(=O)OCCN(CCOC(=O)N(CC(=O)OCCCCCCCCCCC)CC(=O)OCCCCCCCCCCC)CCN(CC)CC [Example 33, Diundecyl 8-(2-(diethylamino)ethyl)-4,12-dioxo-3,13-bis(2-oxo-2-(undecyloxy)ethyl)-5,11-dioxa-3,8,13-triazapentadecanedioate] | – | 2.90
– | 136 nm | – | 93% | CCCCCCCCN(CCCCC(=O)OCC(CCCCCC)CCCCCC)C(=O)OCCN(CCCN(CC)CC)CCOC(=O)N(CCCCCCCC)CCCCC(=O)OCC(CCCCCC)CCCCCC [Example 37, Bis(2-hexyloctyl) 11-(3-(diethylamino)propyl)-6,16-dioctyl-7,15-dioxo-8,14-dioxa-6,11,16-triazahenicosanedioate] | – | 11.39
